# Several values for one entry are separate records, joined by “and”; a condition that tells them apart may be missing. Identical values can stand only once.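 Tested at 5 concentrations; 48 h exposure; 96-well plates; endpoints linearly interpolated, else capped at highest concentration. GI50 marks 50% less growth. TGI: concentration producing complete growth inhibition.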
# Key:
# Assay in all cases: inhibition of tumour cell growth, NCI panel, 48 h
# ACHN renal = test system: ACHN renal
# SW-620 colon = test system: SW-620 colon
# MDA-MB-435 = test system: MDA-MB-435
# OVCAR-8 ovarian = test system: OVCAR-8 ovarian
# U251 CNS = test system: U251 CNS
# SR leukemia = test system: SR leukemia
# MCF7 breast = test system: MCF7 breast
# NCI-H460 lung = test system: NCI-H460 lung
# MDA-N = test system: MDA-N
# UACC-257 melanoma = test system: UACC-257 melanoma
# SF-539 CNS = test system: SF-539 CNS
SMILES,TGI (ACHN renal),TGI (SW-620 colon),TGI (MDA-MB-435),TGI (OVCAR-8 ovarian),TGI (U251 CNS),TGI (SR leukemia),TGI (MCF7 breast),TGI (NCI-H460 lung),TGI (MDA-N),TGI (UACC-257 melanoma),TGI (SF-539 CNS),GI50 (SW-620 colon),GI50 (MCF7 breast),GI50 (MDA-N)
CC1(C)NC2C(=O)c3c([nH]c4ccccc34)[C@]3(C)CCC1CC23 (some centres not stated),> 100 µM,> 100 µM,> 100 µM,> 100 µM,> 100 µM,> 100 µM,> 100 µM,> 100 µM,> 100 µM,> 100 µM,> 100 µM,,,
COc1ccc2ccccc2c1/C=C/C(=O)c1ccccc1,11.1 µM,6.53 µM,7.18 µM,11.2 µM,4.98 µM,2.55 µM,18.6 µM,3.76 µM,13.4 µM,16 µM,7.23 µM,,,
CC(C)(C)OC(=O)NC(Cc1ccc(OCc2ccccc2)cn1)C(=O)N1CCCCC1 (configuration not stated),> 100 µM,> 100 µM,49 µM,> 100 µM,> 100 µM,93 µM,> 100 µM,> 100 µM,> 100 µM,47.3 µM,> 100 µM,,,
CCOC(=O)N/N=C(/N)c1cccc([N+](=O)[O-])c1,> 100 µM,> 100 µM,> 100 µM,> 100 µM,> 100 µM,> 100 µM,> 100 µM,> 100 µM,> 100 µM,> 100 µM,> 100 µM,,,
Cc1ccc(/C=C2\CCCc3ccccc3C2=O)cc1,> 100 µM,65.9 µM,8.46 µM,> 100 µM,52.9 µM,37.1 µM,47.3 µM,32.5 µM,4.48 µM,> 100 µM,37.5 µM,,,
O=c1cc(-c2ccc(F)cc2)[nH]c2ncc(Cl)cc12,> 100 µM,> 100 µM,9.85 µM,> 100 µM,> 83.4 µM,23.7 µM,> 100 µM,> 100 µM,7.91 µM,> 100 µM,97.8 µM,,,
Nc1cc2[nH]c(=O)c(=O)[nH]c2cc1N,> 100 µM,> 100 µM,> 100 µM,> 100 µM,> 100 µM,> 100 µM,> 100 µM,> 100 µM,> 100 µM,> 100 µM,> 100 µM,,,
N=C(N)c1ccc(C(NC(=O)CNS(=O)(=O)c2ccc3ccccc3c2)P(=O)(Oc2ccccc2)Oc2ccccc2)cc1 (configuration not stated),> 100 µM,> 100 µM,> 100 µM,> 100 µM,> 100 µM,> 100 µM,> 100 µM,> 100 µM,> 100 µM,> 100 µM,71.3 µM,,,
O=C1CSC(c2cccc(Oc3ccccc3)c2)N1c1ccc(Cl)cc1 (configuration not stated),75 µM,> 100 µM,87.7 µM,> 100 µM,> 100 µM,46.9 µM,38.5 µM,41.1 µM,63.6 µM,46.5 µM,> 100 µM,,,
O=C(NNC(=S)Nc1cccc(Cl)c1)c1cc(-c2ccccc2)nc2ccccc12,31.8 µM,31.3 µM,33.4 µM,53.3 µM,30.4 µM,49.9 µM,23 µM,39.6 µM,36.5 µM,31.5 µM,29.8 µM,,,
Cc1nc(-c2cc3cc([N+](=O)[O-])ccc3oc2=O)cs1,> 100 µM,> 100 µM,> 100 µM,,> 100 µM,> 100 µM,> 100 µM,> 100 µM,> 100 µM,> 100 µM,> 100 µM,,,
CC(C)[Si](OC1=C(C(=O)N(C)c2cccc(Cl)c2)CCCC1)(C(C)C)C(C)C,31.2 µM,29.2 µM,29 µM,31 µM,32.9 µM,42.5 µM,29.2 µM,32.8 µM,34.4 µM,27.8 µM,40.4 µM,,,
O=C(N/N=C\c1cccc2c([N+](=O)[O-])cccc12)Nc1ccccc1,27.3 µM,35.8 µM,25 µM,36.8 µM,24 µM,43.3 µM,26.7 µM,30.9 µM,32.8 µM,44.4 µM,27.3 µM,,,
CSc1ccc2c(cc1=O)[C@@H](NC(=O)c1ccc(N)cc1)CCc1cc(O)c(O)c(O)c1-2,37.4 µM and 43.8 µM,> 100 µM,51 µM and > 100 µM,> 75 µM and 59.1 µM,57.3 µM and > 100 µM,> 100 µM,21.7 µM and > 100 µM,29.6 µM and 49.7 µM,> 75 µM and 54.1 µM,> 100 µM,27.6 µM,18.7 µM and 8.21 µM,9.14 µM and 3.83 µM,23.9 µM and 5.99 µM
Cc1ccc([N+](=O)[O-])cc1S(=O)(=O)Nc1ccc(C2=NNC(c3ccccc3)C2)cc1 (configuration not stated),54.2 µM,> 100 µM,44.6 µM,> 100 µM,,48.7 µM,43.7 µM,37.6 µM,92.7 µM,40.2 µM,89.2 µM,,,
O=c1[nH]nc(-c2ccccc2)c2[nH]c3c4ccccc4ccc3c12,> 100 µM,> 100 µM,0.673 µM,,> 100 µM,> 100 µM,> 100 µM,> 100 µM,0.545 µM,> 100 µM,3.17 µM,,,
COC1=C(OC)C(=O)C(Cc2c(C)nc3sc(C)cn23)=C(C)C1=O,30 µM,51.6 µM,33.6 µM,32.8 µM,39.7 µM,43.1 µM,59.9 µM,54.3 µM,32.4 µM,26.1 µM,32.4 µM,,,
